Test results reported in the supplement of paper PMC10307832.

Experiments:
Assay in all cases: relative viability (nuclei count vs DMSO), 5 days (fraction); higher = more cells survive
[1] = compound: C[As](C)SC[C@H](NC(=O)CC[C@H](N)C(=O)O)C(=O)NCC(=O)O [Darinaparsin] + CC(=O)c1c(C)c2cnc(Nc3ccc(N4CCNCC4)cn3)nc2n(C2CCCC2)c1=O [Palbociclib] (partner 0.5 µM)
Method in brief: (§1)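 Lung cancer cell lines, seeded in 1536-well plates, were treated the following day by pin tool with a single drug or with five library-drug doses (not always all listed) in √10 steps on top of a fixed anchor-drug dose. Cells were fixed and nuclei stained in one step after 5 days, and nuclei were counted. Relative viability is the nuclei count for treated wells divided by that for vehicle wells, reported as medians of duplicate plates.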

[2] = compound: CC1=C(C=C(C=C1)NC(=O)C2=CC(=CC=C2)C(C)(C)C#N)NC3=CC4=C(C=C3)N=CN(C4=O)C [AZ628] + CC(=O)c1c(C)c2cnc(Nc3ccc(N4CCNCC4)cn3)nc2n(C2CCCC2)c1=O [Palbociclib] (partner 0.5 µM)
Method in brief: as §1

[3] = compound: C1CC2=C(C1)C=C(C=C2)OC3=NC(=C4C(=N3)N(C=N4)CC5=CC=C(C=C5)C6=CC=CC=C6)N[C@@H](CC7=CC=CC=C7)CO [QS11] + NC(=O)Nc1cc(-c2cccc(F)c2)sc1C(=O)N[C@H]1CCCNC1 [AZD7762] (partner 0.2 µM)
Method in brief: as §1

[4] = compound: C1CC2=C(C1)C=C(C=C2)OC3=NC(=C4C(=N3)N(C=N4)CC5=CC=C(C=C5)C6=CC=CC=C6)N[C@@H](CC7=CC=CC=C7)CO [QS11] + CC1(C)CCC(c2ccc(Cl)cc2)=C(CN2CCN(c3ccc(C(=O)NS(=O)(=O)c4ccc(N[C@H](CCN5CCOCC5)CSc5ccccc5)c(S(=O)(=O)C(F)(F)F)c4)cc3)CC2)C1 [Navitoclax] (partner 0.5 µM)
Method in brief: as §1

Row | Cell Line | relative viability ([1]; first compound 0.08 µM) | relative viability ([1]; first compound 0.8 µM) | relative viability ([1]; first compound 2.53 µM) | relative viability ([1]; first compound 8 µM) | relative viability ([2]; first compound 0.08 µM) | relative viability ([2]; first compound 0.253 µM) | relative viability ([2]; first compound 0.8 µM) | relative viability ([2]; first compound 2.53 µM) | relative viability ([2]; first compound 8 µM) | relative viability ([3]; first compound 0.08 µM) | relative viability ([3]; first compound 0.253 µM) | relative viability ([3]; first compound 0.8 µM) | relative viability ([3]; first compound 2.53 µM) | relative viability ([3]; first compound 8 µM) | relative viability ([4]; first compound 0.08 µM) | relative viability ([4]; first compound 0.253 µM) | relative viability ([4]; first compound 0.8 µM) | relative viability ([4]; first compound 2.53 µM) | relative viability ([4]; first compound 8 µM)
1 | NCI-H2347 | 0.43 | 0.404 | 0.447 | 0.4 | 0.468 | 0.352 | 0.266 | 0.403 | 0.344 | 0.698 | 0.694 | 0.692 | 0.834 | 0.807 | 0.598 | 0.826 | 0.716 | 0.743 | 0.839
2 | NCI-H2405 | 0.532 | 0.492 | 0.473 | 0.606 | 0.4 | 0.4 | 0.347 | 0.35 | 0.353 | 0.731 | 0.747 | 0.789 | 1.13 | 1.22 | 0.778 | 0.757 | 0.901 | 0.894 | 0.768
3 | NCI-H3122 | 0.19 | 0.223 | 0.223 | 0.201 | 0.159 | 0.144 | 0.142 | 0.144 | 0.137 | 0.998 | 1.05 |  | 1.15 | 0.961 | 1.01 | 1.06 | 0.698 | 1.06 | 0.817
4 | PC-3 [JPC-3] | 0.553 | 0.516 | 0.542 | 0.547 | 0.505 | 0.583 | 0.583 | 0.597 | 0.6 |  | 0.767 | 0.736 | 0.792 | 0.832 | 0.738 | 0.884 | 0.771 | 0.84 | 0.938
5 | PC-14 | 0.661 | 0.53 | 0.365 | 0.462 | 0.521 | 0.517 | 0.343 | 0.455 | 0.219 | 0.276 | 0.278 | 0.369 | 0.318 | 0.443 | 1.1 | 1.02 | 0.95 | 1.03 | 0.921
6 | RERF-LC-KJ | 1.13 | 1.11 | 1.02 | 1.08 | 1.07 | 1.09 | 0.994 | 1.13 | 0.843 | 1.06 | 0.836 | 0.728 | 0.879 | 0.945 | 0.996 | 1.31 | 0.98 | 0.896 | 0.725
